Measurements published in patent US7317014B2, “Bio-active pyrimidine molecules” (Orchid Research Laboratories, Ltd., priority 2002, dated 2008).

Assays:
IL-6 = IL-6 production from LPS-stimulated human monocytes (ELISA); type: cell-based; conditions: Monocyte; for inhibition at 1 µM: Conc. 1 μM; for inhibition at 10 µM: Conc. 10 μM
Experimental: Interleukin-6(IL-6) This assay determines the effect of test compounds on the production of IL-6 from human monocytes. Compounds are tested for their ability to downregulate the production of IL-6 in activated monocytes. Test compounds were incubated for three, six and twenty four hours with human monocytes. Lipopolysaccharide was used to stimulate the monocytes. The level of Interleukin-6 is quantitated using Enzyme-Linked Immunosorbent assay performed in a 96 well format.

MCF7 = test: DTP human tumor cell line one-dose prescreen, MCF7; type: cell-based; conditions: Concentration (100 μm), Breast MCF7, test/control (T/C)
Experimental: (§1) The current assay utilizes a 384 well plate format and fluorescent staining technologies resulting in greater screening capacity for testing of synthetic samples. Cell Lines The cell lines of the cancer screening panel are grown in RPMI 1640 medium containing 5% fetal bovine serum and 2 mM L-glutamine. For a typical screening experiment, cells are inoculated into 96 well microtiter plates in 100 μL. After cell inoculation, the microtiter plates are incubated at 37° C., 5% CO2, 95% air and 100% relative humidity for 24 h prior to addition of experimental drugs. The cells are plated a densities of 5000 cells/well (MCF7), 1000 cells/well (NCI-H460), and 7500 cells/well (SF-268) to allow for varying doubling time of the cell lines. Each plate contains all three cell lines, a series of dilutions of standard agents, total kill wells and appropriate controls. Plates are incubated under standard conditions for 24 hours prior to addition of experimental compounds or extracts. Addition of Experimental Agents (Pure Compounds) […] Two standard drugs, meaning that their activities against the cell lines are well documented, are tested against each cell line: NSC 19893 (5-FU) and NSC 123127 (Adriamycin). Endpoint Measurement After compound addition, plates are incubated at standard conditions for ?hours, 10 μl/well Alamar Blue is added and the plates are incubated for an additional 4 hours. Fluorescence is measured using an excitation wavelength of 530 nm and an emission wavelength of 590 nm. Calculation of Percent Test Cell Growth/Control (Untreated) Cell Growth (T/C) Calculation of Percent Test Cell Growth/Control (Untreated) Cell Growth (T/C) Percent growth is calculated on a plate-by-plate basis for test wells relative to control wells. Percent Growth is expressed as the ratio of fluorescence of the test well to the average fluorescence of the control wells ×100.

SF-268 = test: DTP human tumor cell line one-dose prescreen, SF-268; type: cell-based; conditions: Concentration (100 μm), CNS SF-268, test/control (T/C)
Experimental: as §1

NCI-H460 = test: DTP human tumor cell line one-dose prescreen, NCI-H460; type: cell-based; conditions: Concentration (100 μm), Lung NCI-H460, test/control (T/C)
Experimental: as §1

TNF-α = TNF-α production from LPS-stimulated human monocytes (ELISA); type: cell-based; conditions: Monocyte
Male Wistar rats = test: Rat carrageenan paw edema test; type: in vivo; conditions: oral
COX-2 = target: T1, COX-2 (Homo sapiens, UniProt P35354); test: Human whole blood assay, COX-2 inhibition (PGE2 after LPS); type: cell-based; conditions: Conc. 0.1 μM, 24 h
T1 construct: incubation of human blood with lipopolysaccharide (LPS), which induces COX-2 production in the blood; endogenous in cells; host or cells: fresh human whole blood from male volunteers, LPS-stimulated, aspirin-pretreated
T1 sequence (P35354 18-604): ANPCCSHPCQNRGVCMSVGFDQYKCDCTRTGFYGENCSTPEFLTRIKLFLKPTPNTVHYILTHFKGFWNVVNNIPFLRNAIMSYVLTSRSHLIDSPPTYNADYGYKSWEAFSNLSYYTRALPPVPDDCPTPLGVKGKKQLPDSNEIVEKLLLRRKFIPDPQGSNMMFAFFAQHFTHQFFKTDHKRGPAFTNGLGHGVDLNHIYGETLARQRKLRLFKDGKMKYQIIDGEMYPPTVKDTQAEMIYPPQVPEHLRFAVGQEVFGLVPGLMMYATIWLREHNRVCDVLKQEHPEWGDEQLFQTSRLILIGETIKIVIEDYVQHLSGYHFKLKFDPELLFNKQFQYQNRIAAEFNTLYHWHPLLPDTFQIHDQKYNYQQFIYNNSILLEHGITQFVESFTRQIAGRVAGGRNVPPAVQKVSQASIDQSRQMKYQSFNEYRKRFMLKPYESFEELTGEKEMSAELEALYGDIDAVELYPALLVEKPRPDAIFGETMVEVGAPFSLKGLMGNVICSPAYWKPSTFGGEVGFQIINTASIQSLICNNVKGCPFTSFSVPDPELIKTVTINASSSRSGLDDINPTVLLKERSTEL
Experimental: The COX-2 inhibition activity of the compounds illustrated in the examples was determined by the following method. Human Whole Blood Assay Human whole blood provides a protein and cell rich milieu appropriate for the study of biochemical efficacy of anti-inflammatory compounds such as selective COX-2 inhibitors. […] This is correlating with the observation that COX-2 inhibitors have no effect on prostaglandin E2 (PGE2) production in normal blood. These inhibitors are active only after incubation of human blood with lipopolysaccharide (LPS), which induces COX-2 production in the blood. Method Fresh blood was collected in tubes containing potassium EDTA by vein puncture from male volunteers. The subjects should have no apparent inflammatory conditions and not taken NSAIDs for atleast 7 days prior to blood collection. Blood was treated with aspirin in vitro (10 μg/ml, at time zero) to inactivate COX-1, and then with LPS (10 μg/ml) along with test agents or vehicle. The blood was incubated for 24 h at 37° C., after which the tubes were centrifuged, the plasma was separated and stored at −80° C. (J. Pharmacol. Exp. Ther., 271, 1705, 1994; Proc. Natl. Acad. Sci. USA., 96, 7563, 1999). The plasma was assayed for PGE2 using Cayman ELISA kit as per the procedure outlined by the manufacturer (Cayman Chemicals, Ann Arbor, USA). The plasma was also tested for TNF-α, IL-1β, and IL-6 using appropriate human ELISA kit as per the procedure of manufacturer (Cayman Chemicals, Ann Arbor, USA).

Row | Structure (SMILES) | melting point [°C] | also measured
1 | Cc1ccc(-c2nc(Cl)nc(Cl)c2-c2ccc(Cl)cc2)cc1 | 223 to 225 | 
2 | [N-]=[N+]=Nc1nc(C(F)(F)F)nc(-c2ccccc2)c1-c1ccccc1 | 126 to 128 | 
3 | CS(=O)(=O)c1ccc(-c2nc(C(F)(F)F)nc(N=[N+]=[N-])c2-c2ccccc2)cc1 | 172 to 175 | 
4 | CS(=O)(=O)c1ccc(-c2nc(C(F)(F)F)nc(N=[N+]=[N-])c2-c2ccc(Cl)cc2)cc1 | 317 to 320 | 
5 | CS(=O)(=O)c1ccc(-c2nc(C(F)(F)F)nc(N=[N+]=[N-])c2-c2ccc(F)cc2)cc1 | 285 to 288 | 
6 | NNc1nc(C(F)(F)F)nc(-c2ccc(F)cc2)c1-c1ccccc1 | 175 to 177 | 
7 | CS(=O)(=O)c1ccc(-c2nc(C(F)(F)F)nc(NN)c2-c2ccc(Cl)cc2)cc1 | 266 to 269 | 
8 | CS(=O)(=O)c1ccc(-c2nc(C(F)(F)F)nc(NN)c2-c2ccc(F)cc2)cc1 | 286 to 290 | 
9 | CSc1ccc(-c2c(NN)nc(Cl)nc2-c2ccccc2)cc1 | 272 to 274 | 
10 | Fc1ccc(-c2nc(C(F)(F)F)nc(Cl)c2-c2ccccc2)cc1 | 67 to 68 | 
11 | CSc1ccc(-c2c(NN)nc(NN)nc2-c2ccccc2)cc1 | 207 to 210 | 
12 | CC(=O)NNc1nc(C(F)(F)F)nc(-c2ccccc2)c1-c1ccccc1 | 113 to 116 | 
13 | CC(=O)NNc1nc(C(F)(F)F)nc(-c2ccc(F)cc2)c1-c1ccccc1 | 149 to 153 | 
14 | CC(=O)NNc1nc(C(F)(F)F)nc(-c2ccc(S(C)(=O)=O)cc2)c1-c1ccccc1 | 265 to 268 | 
15 | CC(=O)NNc1nc(C(F)(F)F)nc(-c2ccc(S(C)(=O)=O)cc2)c1-c1ccc(Cl)cc1 | 254 to 256 | 
16 | CS(=O)(=O)c1ccc(-c2nc(C(F)(F)F)nc(NNC(=O)C(F)(F)F)c2-c2ccc(Cl)cc2)cc1 | 307 to 309 | 

Row | Structure (SMILES) | melting point [°C] | also measured
17 | O=c1nc(Cl)cc(-c2ccccc2)n1-c1ccccc1 | 141 to 143 | 
18 | FC(F)(F)c1nc(Cl)c(-c2ccccc2)c(-c2ccccc2)n1 [Example 1, 4-chloro-5,6-diphenyl-2-(trifluoromethyl)pyrimidine] | 105 to 107 | inhibition at 1 µM (IL-6): 62.5%
19 | Cc1ccc(-c2nc(C(F)(F)F)nc(Cl)c2-c2ccccc2)cc1 [Example 2, 4-chloro-6-(4-methylphenyl)-5-phenyl-2-(trifluoromethyl)pyrimidine] | 97 to 100 | inhibition at 1 µM (IL-6): 62.3%
20 | CS(=O)(=O)c1ccc(-c2nc(C(F)(F)F)nc(Cl)c2-c2ccccc2)cc1 [Example 4, 4-chloro-6-[4-(methylsulfonyl)phenyl]-5-phenyl-2-(trifluoromethyl)pyrimidine] | 156 to 159 | Percentage Growth Breast MCF7 (MCF7): 0; Percentage Growth CNS SF-268 (SF-268): 3; Percentage Growth Lung NCI-H460 (NCI-H460): 0; inhibition at 10 µM (TNF-α; Conc. 10 μM): 55.4%
21 | Clc1nc(Cl)c(-c2ccccc2)c(-c2ccccc2)n1 [Example 7, 2,4-dichloro-5,6-diphenylpyrimidine] | 144 to 146 | Rat Paw Edema model % Inhibition (10 mg/kg body weight) (Male Wistar rats): 60.9%
22 | Cc1ccc(-c2nc(Cl)nc(Cl)c2-c2ccccc2)cc1 [Example 8, 2,4-dichloro-6-(4-methylphenyl)-5-phenylpyrimidine] | 130 to 132 | Percentage Growth Breast MCF7 (MCF7): 5; Percentage Growth CNS SF-268 (SF-268): 6; Percentage Growth Lung NCI-H460 (NCI-H460): 1
23 | Clc1ccc(-c2nc(Cl)nc(Cl)c2-c2ccccc2)cc1 [Example 9, 6-(4-chlorophenyl)-2,4-dichloro-5-phenylpyrimidine] | 129 to 131 | inhibition at 0.1 µM (COX-2): 60.5%; Percentage Growth Breast MCF7 (MCF7): 1; Percentage Growth CNS SF-268 (SF-268): 1; Rat Paw Edema model % Inhibition (10 mg/kg body weight) (Male Wistar rats): 42.8%; Percentage Growth Lung NCI-H460 (NCI-H460): 0
24 | Clc1ccc(-c2c(Cl)nc(Cl)nc2-c2ccccc2)cc1 [Example 10, 5-(4-chlorophenyl)-2,4-dichloro-6-phenylpyrimidine] | 123 to 125 | Percentage Growth Breast MCF7 (MCF7): 0; Percentage Growth CNS SF-268 (SF-268): 0; Percentage Growth Lung NCI-H460 (NCI-H460): 0
25 | COc1ccc(-c2c(Cl)nc(Cl)nc2-c2ccccc2)cc1 [Example 11, 2,4-dichloro-5-(4-methoxyphenyl)-6-phenylpyrimidine] | 132 to 134 | Percentage Growth Breast MCF7 (MCF7): 5; Percentage Growth CNS SF-268 (SF-268): 2; Percentage Growth Lung NCI-H460 (NCI-H460): 0; inhibition at 1 µM (TNF-α; Conc. 1 μM): 29.2%
26 | CSc1ccc(-c2c(Cl)nc(Cl)nc2-c2ccccc2)cc1 [Example 12, 2,4-dichloro-5-[4-(methylthio)phenyl]-6-phenylpyrimidine] | 88 to 90 | Percentage Growth Breast MCF7 (MCF7): −1; Percentage Growth CNS SF-268 (SF-268): 4; Percentage Growth Lung NCI-H460 (NCI-H460): 0
27 | CSc1ccc(-c2c(Cl)nc(Cl)nc2-c2ccc(Cl)cc2)cc1 [Example 13, 2,4-dichloro-6-(4-chlorophenyl)-5-[4-(methylthio)phenyl]pyrimidine] | 144 to 146 | inhibition at 0.1 µM (COX-2): 45.7%; Rat Paw Edema model % Inhibition (10 mg/kg body weight) (Male Wistar rats): 47.8%
28 | NNc1nc(C(F)(F)F)nc(-c2ccccc2)c1-c1ccccc1 [Example 21, 4-hydrazino-5,6-diphenyl-2-(trifluoromethyl)pyrimidine] | 182 to 186 | inhibition at 1 µM (IL-6): 67.5%
29 | Cc1ccc(-c2nc(C(F)(F)F)nc(NN)c2-c2ccccc2)cc1 [Example 22, 4-hydrazino-6-(4-methylphenyl)-5-phenyl-2-(trifluoromethyl)pyrimidine] | 188 to 191 | inhibition at 1 µM (IL-6): 52.3%
30 | CS(=O)(=O)c1ccc(-c2nc(C(F)(F)F)nc(NN)c2-c2ccccc2)cc1 [Example 24, 4-hydrazino-6-[4-(methylsulfonyl)phenyl]-5-phenyl-2-(trifluoromethyl)pyrimidine] | 272 to 275 | inhibition at 10 µM (IL-6): 66%
31 | CC(=O)NNc1nc(C(F)(F)F)nc(-c2ccc(C)cc2)c1-c1ccccc1 [Example 32, N′-[6-(4-methylphenyl)-5-phenyl-2-(trifluoromethyl)pyrimidin-4-yl]acetohydrazide] | 147 to 152 | inhibition at 10 µM (IL-6): 53.3%
